Source: patent publication US9656978B2, “Acylpiperazines as inhibitors of transglutaminase and their use in medicine” (ASTON UNIVERSITY, priority 2012, dated 2017)

Columns and labels:
[1] = target: T1, purified recombinant human TG2 (tissue transglutaminase) (Homo sapiens, UniProt P21980); experiment: TG2 transamidation activity, biotin X-cadaverine incorporation into N,N′-dimethylcasein (Example 2); type: biochemical; settings: recombinant human TG2 400 ng/ml, 2 h at 37° C.
T1 construct: purchased Zedira, Germany
T1 sequence (P21980 1-687): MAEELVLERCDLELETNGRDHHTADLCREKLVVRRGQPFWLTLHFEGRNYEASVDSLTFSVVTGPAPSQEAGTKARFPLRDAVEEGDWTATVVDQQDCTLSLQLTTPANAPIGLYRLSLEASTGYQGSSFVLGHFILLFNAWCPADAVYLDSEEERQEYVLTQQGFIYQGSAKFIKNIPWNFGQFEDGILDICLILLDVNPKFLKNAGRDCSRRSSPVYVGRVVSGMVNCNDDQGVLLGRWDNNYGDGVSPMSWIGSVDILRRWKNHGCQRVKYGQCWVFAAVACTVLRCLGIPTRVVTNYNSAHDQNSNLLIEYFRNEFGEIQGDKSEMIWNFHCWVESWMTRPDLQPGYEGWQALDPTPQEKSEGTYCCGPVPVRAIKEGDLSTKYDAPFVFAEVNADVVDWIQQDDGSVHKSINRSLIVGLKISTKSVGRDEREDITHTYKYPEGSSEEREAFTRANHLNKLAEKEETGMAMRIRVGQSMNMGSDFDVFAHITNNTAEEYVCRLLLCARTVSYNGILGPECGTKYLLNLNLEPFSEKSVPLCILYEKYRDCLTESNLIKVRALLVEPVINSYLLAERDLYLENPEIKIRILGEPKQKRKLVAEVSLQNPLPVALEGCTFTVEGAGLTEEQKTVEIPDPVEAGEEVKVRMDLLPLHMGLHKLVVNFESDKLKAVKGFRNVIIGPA
Experimental: TG transamidation activity and the affect of inhibitors on activity was measured by biotin X-cadaverine incorporation into N,N′-dimethylcasein. After coating 96 well plates with 100 μl of 10 mg/ml N,N′-dimethylcasein in 50 mM Tris-Cl, pH8 at 4° C. over night, plates were washed with TBS-0.05% Tween-20(v/v), pH 7.6 and TBS, pH 7.6, and 100 μl purified recombinant human TG2 (400 ng/ml Zedira, Germany) (tissue transglutaminase) in 50 mM Tris-HCl, pH7.4, containing 1 mM DTT, 10 mM CaCl2 and 0.1 μM biotin-cadaverine added into the coated wells containing the appropriate concentration of inhibitor. The reaction was allowed to proceed for 2 h at 37° C. The plate was then washed twice with TBS-Tween-20 (v/v), pH 7.6 and once with TBS, pH 7.6 before being blocked with 100 μl of blocking buffer (3% (w/v) BSA in TBS-Tween, pH 7.6) for 30 min at 37° C. After blocking, the wells were incubated with 100 μl HRP-conjugated Extr-Avidin peroxidase (Sigma-Aldrich, UK) in blocking buffer (1:1,000 dilution) for 1 h at 37° C. After another set of washes, TG2 activity was measured using Sigma Fast OPD, tablets dissolved in 20 ml of distilled H2O. The colour was developed by adding 2.5 M H2SO4 and the absorbance at 490 nm measured using a microplate reader ELx808™. All inhibitors were dissolved in DMSO as a 100 mM solution prior to addition to the assay.

Factor X111a = target: T2, Factor X111a (Homo sapiens, UniProt P00488); experiment: TG-CovTest commercial microassay, Factor X111a; type: biochemical; settings: read-out: Estimated IC50 FXIII
T2 sequence (P00488 39-732 limits assumed): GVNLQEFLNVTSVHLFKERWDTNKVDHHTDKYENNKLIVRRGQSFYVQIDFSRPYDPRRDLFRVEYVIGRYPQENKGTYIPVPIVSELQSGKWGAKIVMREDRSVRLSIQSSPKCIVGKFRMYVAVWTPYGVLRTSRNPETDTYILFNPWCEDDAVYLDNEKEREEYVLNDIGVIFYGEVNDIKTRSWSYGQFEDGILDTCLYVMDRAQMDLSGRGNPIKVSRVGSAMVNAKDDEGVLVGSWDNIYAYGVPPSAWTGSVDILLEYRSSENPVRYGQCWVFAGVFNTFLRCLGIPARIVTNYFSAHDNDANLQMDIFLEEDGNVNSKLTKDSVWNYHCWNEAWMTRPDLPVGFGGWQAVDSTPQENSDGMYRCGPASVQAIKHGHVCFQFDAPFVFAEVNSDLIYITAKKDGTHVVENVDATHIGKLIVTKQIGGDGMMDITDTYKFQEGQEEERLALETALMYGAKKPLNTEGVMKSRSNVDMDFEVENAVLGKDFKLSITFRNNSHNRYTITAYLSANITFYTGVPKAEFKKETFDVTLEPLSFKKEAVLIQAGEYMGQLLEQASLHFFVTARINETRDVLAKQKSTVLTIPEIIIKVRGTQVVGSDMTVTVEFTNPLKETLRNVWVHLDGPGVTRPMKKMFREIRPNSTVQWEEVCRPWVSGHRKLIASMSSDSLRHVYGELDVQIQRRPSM
Source text: (§1) For determination of the activity of transglutaminase 1,transglutaminase 3 and Factor X111a, a commercial microassay was used, TG-CovTest (Covalab, Lyon, France; see also Perez et al. Anal Biochem. 2009; 389:150-156).

transglutaminase 1 = target: T3, transglutaminase 1 (Homo sapiens, UniProt P22735); experiment: TG-CovTest commercial microassay, transglutaminase 1; type: biochemical; settings: read-out: Estimated IC50 TG1
T3 sequence (P22735 1-817): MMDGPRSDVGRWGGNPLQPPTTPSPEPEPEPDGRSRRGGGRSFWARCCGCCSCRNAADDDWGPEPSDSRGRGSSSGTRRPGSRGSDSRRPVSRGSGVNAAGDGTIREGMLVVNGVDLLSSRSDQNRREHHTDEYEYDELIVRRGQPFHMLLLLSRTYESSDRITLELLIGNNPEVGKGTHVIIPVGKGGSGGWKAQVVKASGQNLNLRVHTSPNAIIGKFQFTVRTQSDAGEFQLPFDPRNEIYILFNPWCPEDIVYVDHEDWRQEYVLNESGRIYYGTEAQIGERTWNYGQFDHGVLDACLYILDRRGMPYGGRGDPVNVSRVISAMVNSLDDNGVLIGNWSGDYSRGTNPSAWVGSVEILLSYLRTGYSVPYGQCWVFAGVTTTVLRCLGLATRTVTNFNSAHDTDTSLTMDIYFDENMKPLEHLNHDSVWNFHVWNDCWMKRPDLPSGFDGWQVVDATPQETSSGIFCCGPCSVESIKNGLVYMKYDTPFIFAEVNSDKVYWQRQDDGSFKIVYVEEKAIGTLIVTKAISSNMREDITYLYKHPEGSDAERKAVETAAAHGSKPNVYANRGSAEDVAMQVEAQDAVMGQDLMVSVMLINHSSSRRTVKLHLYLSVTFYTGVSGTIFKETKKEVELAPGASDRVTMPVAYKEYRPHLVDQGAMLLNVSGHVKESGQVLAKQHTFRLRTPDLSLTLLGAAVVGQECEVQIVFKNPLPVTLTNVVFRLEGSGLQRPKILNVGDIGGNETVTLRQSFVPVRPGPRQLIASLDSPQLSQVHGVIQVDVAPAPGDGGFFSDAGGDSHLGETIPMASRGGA
Source text: as §1

transglutaminase 3 = target: T4, transglutaminase 3 (Homo sapiens, UniProt Q08188); experiment: TG-CovTest commercial microassay, transglutaminase 3; type: biochemical; settings: read-out: Estimated IC50 TG3
T4 sequence (Q08188 1-693): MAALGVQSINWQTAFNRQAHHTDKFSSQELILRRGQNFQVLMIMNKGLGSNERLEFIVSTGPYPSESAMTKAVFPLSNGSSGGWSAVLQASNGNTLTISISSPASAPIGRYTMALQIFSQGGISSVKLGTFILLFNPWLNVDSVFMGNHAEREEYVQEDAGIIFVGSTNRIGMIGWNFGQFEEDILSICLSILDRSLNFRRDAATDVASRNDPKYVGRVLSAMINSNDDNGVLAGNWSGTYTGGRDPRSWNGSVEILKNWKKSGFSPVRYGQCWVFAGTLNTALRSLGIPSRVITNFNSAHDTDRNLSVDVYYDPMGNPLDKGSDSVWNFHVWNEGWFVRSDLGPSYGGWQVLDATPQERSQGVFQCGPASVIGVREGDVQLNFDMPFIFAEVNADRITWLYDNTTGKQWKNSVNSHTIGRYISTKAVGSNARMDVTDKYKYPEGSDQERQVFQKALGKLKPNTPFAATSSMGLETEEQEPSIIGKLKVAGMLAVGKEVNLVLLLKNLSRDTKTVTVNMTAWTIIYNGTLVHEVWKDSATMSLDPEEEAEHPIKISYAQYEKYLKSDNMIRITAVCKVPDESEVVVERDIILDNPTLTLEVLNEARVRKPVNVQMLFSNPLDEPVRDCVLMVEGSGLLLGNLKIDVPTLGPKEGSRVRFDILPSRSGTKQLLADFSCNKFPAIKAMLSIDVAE
Source text: as §1

| IC50 [1] [µM] | IC50 (Factor X111a) [µM] | Structure (SMILES) | further results |
| --- | --- | --- | --- |
|  |  | COC(=O)c1ccc2cc(COC(=O)N3CCN(C(=O)CNC(=O)C[S+](C)C)CC3)ccc2c1.[Br-] | melting point: 125 to 126 °C |
|  |  | CN(C)c1cccc2c(S(=O)(=O)N3CCN(C(=O)CNC(=O)C[S+](C)C)CC3)cccc12.[Br-] | melting point: 98 to 99 °C |
|  |  | C=CS(=O)(=O)NCC(=O)N1CCN(C(=O)OCc2ccccc2)CC1 [Compound 8a, benzyl 4-[2-(vinylsulfonylamino)acetyl]piperazine-1-carboxylate] | melting point: 66 to 67 °C |
|  |  | C=CS(=O)(=O)NCC(=O)N1CCN(C(=O)C23CC4CC(CC(C4)C2)C3)CC1 [Compound 8e, N-[2-[4-(adamantane-1-carbonyl)piperazin-1-yl]-2-oxo-ethyl]ethenesulfonamide] | melting point: 159 to 160 °C |
| 0.75 ± 0.07 |  | O=C(CBr)NCC(=O)N1CCN(C(=O)OCc2ccccc2)CC1 [EB 1-32] |  |
|  | > 100 | C[S+](C)CC(=O)NCC(=O)N1CCN(C(=O)OCc2ccccc2)CC1 [EB 1-33] |  |
| 0.008 ± 0.003 |  | CC(C)(C)OC(=O)N1CCN(C(=O)CNC(=O)CBr)CC1 [EB 1-37] |  |
| 4.25 ± 0.78 |  | CC(=O)NCC(=O)N1CCN(C(=O)OCc2ccccc2)CC1 [EB 1-44] |  |
| 400 |  | Cc1c(C)[n+](C)c(SCC(=O)NCC(=O)N2CCN(C(=O)OC(C)(C)C)CC2)n1C [EB 1-45] |  |
| 0.07 ± 0.007 | > 100 | C[S+](C)CC(=O)NCC(=O)N1CCN(C(=O)OC(C)(C)C)CC1 [EB 1-46] |  |
|  | > 100 | C=CC(=O)NCC(=O)N1CCN(C(=O)OCc2ccc3ccccc3c2)CC1 [EB 1-81] |  |
|  | > 100 | C[S+](C)CC(=O)NCC(=O)N1CCN(C(=O)OCc2ccc3ccccc3c2)CC1 [EB 1-91] |  |
| 0.066 ± 0.001 |  | C[C@@H](NC(=O)CBr)C(=O)N1CCN(C(=O)OCc2ccccc2)CC1 [EB 1-100] |  |
| 0.048 ± 0.006 |  | C[C@H](NC(=O)CBr)C(=O)N1CCN(C(=O)OCc2ccccc2)CC1 [EB 1-101] |  |
|  | > 100 | C=CC(=O)NCC(=O)N1CCN(C(=O)OCc2ccc3cc(C(=O)OC)ccc3c2)CC1 [EB 1-136] |  |
|  | < 100 | COC(=O)c1ccc2cc(COC(=O)N3CCN(C(=O)CNC(=O)CBr)CC3)ccc2c1 [EB 1-137] |  |
|  | > 100 | CC[S+](CC)CC(=O)NCC(=O)N1CCN(S(=O)(=O)c2cccc3c(N(C)C)cccc23)CC1 [EB 1-159] | IC50 (transglutaminase 1): > 100 µM; IC50 (transglutaminase 3): > 100 µM |
| < 1 | > 100 | O=C(CBr)NCC(=O)N1CCN(C(=O)OCC23CC4CC(CC(C4)C2)C3)CC1 [EB 1-176] | IC50 (transglutaminase 1): 2 µM; IC50 (transglutaminase 3): 25 µM |
| 0.0063 ± 0.00049 | > 100 | O=C(CBr)NCC(=O)N1CCN(C(=O)OCCC23CC4CC(CC(C4)C2)C3)CC1 [EB 1-177] |  |
|  | > 100 | C[S+](C)CC(=O)NCC(=O)N1CCN(C(=O)OCC23CC4CC(CC(C4)C2)C3)CC1 [EB 1-178] |  |
|  | > 100 | C=CC(=O)NCC(=O)N1CCN(C(=O)OCCC23CC4CC(CC(C4)C2)C3)CC1 [EB 1-181] |  |
|  | 30 | C=CC(=O)NCC(=O)N1CCN(C(=O)C23CC4CC(CC(C4)C2)C3)CC1 [EB 2-16] | IC50 (transglutaminase 1): 2 µM |
|  | < 100 | O=C(CBr)NCC(=O)N1CCN(C(=O)C23CC4CC(CC(C4)C2)C3)CC1 [EB 2-17] |  |
|  | > 100 | C[S+](C)CC(=O)NCC(=O)N1CCN(C(=O)C23CC4CC(CC(C4)C2)C3)CC1 [EB 2-18] |  |
| 0.0059 ± 0.00014 |  | CN(C)c1cccc2c(S(=O)(=O)N3CCN(C(=O)CNC(=O)CCl)CC3)cccc12 [EB 2-57] |  |

| Structure (SMILES) | IC50 [1] [µM] | IC50 (Factor X111a) [µM] | further results |
| --- | --- | --- | --- |
| C=CC(=O)NCC(=O)N1CCN(S(=O)(=O)c2cccc3c(N(C)C)cccc23)CC1 [EB 1-155] | 0.0061 ± 0.00042 | > 100 | IC50 (transglutaminase 1): 5 µM; IC50 (transglutaminase 3): > 100 µM |
